From patent US20240368230A1, “CELL-PENETRATING PEPTIDES COMPRISING MULTIPLE 5-MER ALPHA-HELIX FRAGMENTS AND USES THEREOF” (ArtProBio Co., Ltd., priority 2023, published 2024) come the findings set out here.

The subject of data set [1] is HeLa cells. Kind of data set: Flow cytometry cellular uptake efficiency, HeLa. It is filed as cell-based. The conditions noted are these: HeLa, 30 μM, FAM-labeled. As to the method: (§1) After washing with PBS, the cells were treated with the fluorescence-labeled peptide (sample) for 4 hours. Then, after washing twice with PBS, the cells were incubated with trypsin (1 mg/mL) for 15 minutes and the peptide bound to the cell surface was removed. The cells were centrifuged at 1,200 rpm for 5 minutes, washed twice with PBS and then suspended in a PBS buffer containing 10% non-enzymatic cell dissociation solution. The fluorescence intensity of the internalized peptide was measured using a BD LSR II flow cytometer (BD Biosciences, USA).
(§2) The cell-penetrating peptides (CPP10, CPP11 and Tat) were labeled with FAM (5 (6)-carboxyfluorescein) at the N-terminal. MFI stands for mean fluorescence intensity. Untreated cells were used as control groups (cell only). The cellular uptake efficiency refers to the degree of penetration into cells.
Flow cytometry was performed after treating Hela cells with the cell-penetrating peptide prepared in Example 11 (CPP11) of different concentrations (4 μM, 30 μM, 60 μM, 90 μM, 120 μM, 270 μM and 500 μM).
In general terms: A flow cytometer gives signals particle by particle.

The test system of another data set is HCT116 cells. As to the kind of experiment: Flow cytometry cellular uptake efficiency, HCT116. It is filed as cell-based. The conditions noted are these: HCT116, 30 μM, FAM-labeled. As to the method: as §1, §2
The next data set relates to 293T cells. As to the kind of experiment: Flow cytometry cellular uptake efficiency, 293T. The conditions noted are these: 30 μM, FAM-labeled. Type of data set: cell-based. As to the method: as §1, §2
Another data set deals with BALB/c nude mice. As to the kind of experiment: In-vivo fluorescence imaging (IVIS) of living mice, targeting. The procedure: All animal experimental procedures including sample administration and euthanasia were performed in accordance with the strict guidelines of the Yonsei University Health System Institutional Animal Care and Use Committee. Female 7-week BALB/c nude mice were purchased from Orient Bio Company (Korea). Fluorescence-labeled peptide (sample) (10 mg/kg) was injected via the lateral tail vein of the mice. Fluorescence images were acquired at different times (0, 4, 8 and 12 hours) using an in-vivo imaging system (IVIS; PerkinElmer, USA) and the images were analyzed with the Living Image software (PerkinElmer).
Female 7-week-old BALB/c nude mice were injected IV (intravenously) with the cell-penetrating peptide prepared in Example 10 (CPP10) at 10 mg/kg or 1 mg/kg via the lateral tail vein and imaged using IVIS (in-vivo imaging system) (PerkinElmer, USA) 4 hours later. The images were analyzed with the Living Image software (PerkinElmer). The mice were analyzed from the top, bottom (belly) and side positions (FIG. 44A). Then, after administering the same volume of the cell-penetrating peptide prepared in Example 10 (CPP10) at 10 mg/kg via IV (intravenous) or IP (intraperitoneal) injection, the mice were imaged 4 hours later (FIG. 44B).
Next, female 7-week-old BALB/c nude mice were injected IV (intravenously) with the cell-penetrating peptide of Example 10 (CPP10), the cell-penetrating peptide of Example 11 (CPP11) or the cell-penetrating peptide of Example 14 (CPP11d) at 10 mg/kg via the lateral tail vein, and they were imaged 30 minutes and 6 hours later using IVIS (in-vivo imaging system) (PerkinElmer, USA). The images were analyzed with the Living Image software (PerkinElmer) (FIG. 44C). In FIGS. 44A and 44B, the cell-penetrating peptides were labeled with TAMRA (5 (6)-carboxytetramethylrhodamine). In FIG. 44C, the cell-penetrating peptides were labeled with FAM.
The images were analyzed with the Living Image software (PerkinElmer) (FIGS. 50 and 51).
The cell-penetrating peptide prepared in Example 11 (CPP11) was also administered at the same concentration and then analyzed by IVIS 1 hour later (FIG. 51). The cell-penetrating peptide was used after labeling with FAM.
4 hours later, the mice were imaged using IVIS (in-vivo imaging system) (PerkinElmer, USA) and the images were analyzed with the Living Image software (PerkinElmer) (FIG. 53).
The cell-penetrating peptide prepared in Example 11 (CPP11) was also administered at the same concentration and then analyzed by IVIS 1 hour later (FIG. 53). The cell-penetrating peptide was used after labeling with FAM.
Female 7-week-old BALB/c nude mice were injected IV (intravenously) with 200 μL of the cell-penetrating peptide of Example 11 (CPP11) or the existing cell-penetrating peptides (Rev ARM, Tat, penetratin and R8) at 5 mg/kg via the lateral tail vein. 4 hours later, the mice were imaged using IVIS (in-vivo imaging system) (PerkinElmer, USA) and the images were analyzed with the Living Image software (PerkinElmer) (FIGS. 54 and 55). The cell-penetrating peptides were used after labeling with FAM.

For data set [2], the system named is HeLa cells. Kind of data set: Cytotoxicity analysis with WST-8 reagent. The conditions noted are these: 24 hours, various concentrations. On the technique in general: Formazan colour is commonly taken as a measure of viable cells.
Protocol: (§3) Cytotoxicity was analyzed using the WST-8 (5-(2,4-disulfophenyl)-3-(2-methoxy-4-nitrophenyl)-2-(4-nitrophenyl)-2H-tetrazolium, water-soluble tetrazolium). First, HeLa cells were inoculated onto a 96-well plate (5,000 cells/well) and cultured for 24 hours in a DMEM medium containing 10% FBS. After washing with PBS, the peptide (sample) of various concentrations was added to Opti-MEM. 24 hours later, the WST-8 reagent was added and incubation was conducted for 1 hour. Then, WST-8 formazan was quantified using a Victor X5 multilabel plate reader (Perkin Elmer, USA).
Data set [3] in a line: CD spectroscopy of cell-penetrating peptides (helicity). Conditions: for secondary structure / helix stabilization by CD: 10 mM potassium phosphate, pH 7.4, 20° C.
Protocol: The concentration of peptides/proteins was 5-20 μM in general. Spectra were obtained using a Jasco J-1500 CD spectrometer (JASCO, Japan) or a Chirascan CD spectrometer (Applied Photophysics, UK). Scanning was carried out using a cuvette with a path length of 1 mm. MRE (mean residue ellipticity) was calculated per amino acid residue.
The cell-penetrating peptides (CPP1 TO 13 and CPP11d) were dissolved respectively in 10 mM potassium phosphate. The analysis was performed under the condition of pH 7.4 and 20° C.
The test system of data set [4] is HeLa cells.
Protocol: as §3
The next data set deals with IIB RNA. As to the kind of experiment: UV melting analysis of IIB RNA and cRev-IIB complex. The conditions noted are these: 260 nm; cRev/IIB ratio 1; IIB RNA only as control. It is filed as physicochemical, HIV-1. As to the method:
UV melting experiments for free RNA (2 μM) and a protein-RNA complex (1:1 molar ratio) were conducted using an Agilent 8453 diode array UV-Vis spectrophotometer equipped with a Peltier temperature controller. Spectra were measured at 260 nm using a cuvette with a path length of 1 cm under the heating rate condition of 2° C./min. The measurement was repeated 3 times and the average was taken. Prior to the measurement, the RNA sample was heated at 90° C. for 2 minutes and then annealed on ice. The melting temperature (Tm) was calculated with the Origin software (OriginLab, USA) using a two-state or multi-state model.
A complex (cRev-IIB complex) was prepared by mixing the cRev prepared in Preparation Example 2 with IIB RNA and UV melting experiment was performed. The cRev/IIB ratio was 1. For the control group (IIB RNA only), only IIB RNA was used without cRev.

Like-named read-outs stand apart in the source and are kept apart here. Where a SMILES comes first, the peptide text is derived from it.

Take `C[C@H](NC(=O)[C@H](CCC(N)=O)NC(=O)C(C)(C)NC(=O)[C@H](C)NC(=O)C(C)(C)NC(=O)[C@H](CC(N)=O)NC(=O)[C@H](CCCNC(=N)N)NC(=O)[C@H](CCCNC(=N)N)NC(=O)[C@H](C)NC(=O)[C@H](CCC(N)=O)NC(=O)C(C)(C)NC(=O)[C@H](C)NC(=O)C(C)(C)NC(=O)[C@H](CC(N)=O)NC(=O)[C@H](CCCNC(=N)N)NC(=O)[C@H](CCCNC(=N)N)NC(=O)[C@H](C)NC(=O)[C@H](CCC(N)=O)NC(=O)C(C)(C)NC(=O)[C@H](C)NC(=O)C(C)(C)N)C(=O)N[C@@H](CCCNC(=N)N)C(=O)N[C@@H](CCCNC(=N)N)C(=O)N[C@@H](CC(N)=O)C(=O)NC(C)(C)C(=O)N[C@@H](C)C(=O)NC(C)(C)C(N)=O` [CPP10] (HELM PEPTIDE1{[Aib].A.[Aib].Q.A.R.R.N.[Aib].A.[Aib].Q.A.R.R.N.[Aib].A.[Aib].Q.A.R.R.N.[Aib].A.[Aib].[am]}$$$$V2.0; N-terminus assumed): the “cell-penetrating ability compared with Tat” value with HeLa cells [1], with HCT116 cells and in the data set on 293T cells was “significantly superior” each time. For the same compound, the in-vivo targeting site entry with BALB/c nude mice (FAM-labeled, IV 10 mg/kg, 30 minutes and 6 hours) is “targeted the ear”. In the data set with BALB/c nude mice (TAMRA-labeled, 10 mg/kg, 4 hours), the “targeting efficiency IV versus IP” value is given as “higher targeting efficiency when administered by IV injection rather than by IP injection”. The in-vivo fluorescence distribution entry with BALB/c nude mice (TAMRA-labeled, IV tail vein, 10 mg/kg or 1 mg/kg, 4 hours) was “bright fluorescence was observed in the ear”. Moreover, the “cytotoxicity (WST-8)” value in the data set on HeLa cells [2] is “hardly show cytotoxicity”. In data set [3], the “secondary structure / helix stabilization by CD” value was “significantly higher than those of CPP8 and CPP9”.

“UaUgarrnUaUqarrnUaUqarrnUaUqarrnUaU [CPP11d]”: in the data set on BALB/c nude mice (mouse, in vivo, iv, 10 mg/kg), the in-vivo targeting site entry was “targeted the ear”. Moreover, in the data set with HeLa cells [4], the “cytotoxicity (WST-8)” value is “hardly show cytotoxicity”. Also, in data set [3], the “secondary structure / helix stabilization by CD” value was “perfect left-handed helical conformation”.

For the compound “GGACCUGGUAUGGGCGCAGCGCAAGCUGACGGUACAGGCCAGGUCC (listed as RNA, chemistry not given here) [IIB RNA, stem-loop IIB region of HIV-1 RRE RNA]”, in the data set on IIB RNA, the “Tm (UV melting)” value came to 60.6 °C.

For `C[C@H](NC(=O)[C@H](CCC(N)=O)NC(=O)C(C)(C)NC(=O)CNC(=O)C(C)(C)NC(=O)[C@H](CC(N)=O)NC(=O)[C@H](CCCNC(=N)N)NC(=O)[C@H](CCCNC(=N)N)NC(=O)[C@H](C)NC(=O)[C@H](CCC(N)=O)NC(=O)C(C)(C)NC(=O)CNC(=O)C(C)(C)NC(=O)[C@H](CC(N)=O)NC(=O)[C@H](CCCNC(=N)N)NC(=O)[C@H](CCCNC(=N)N)NC(=O)[C@H](C)NC(=O)[C@H](CCC(N)=O)NC(=O)C(C)(C)NC(=O)[C@H](C)NC(=O)C(C)(C)N)C(=O)N[C@@H](CCCNC(=N)N)C(=O)N[C@@H](CCCNC(=N)N)C(=O)N[C@@H](CC(N)=O)C(=O)NC(C)(C)C(=O)NCC(=O)NC(C)(C)C(=O)N[C@@H](CCC(N)=O)C(=O)N[C@@H](C)C(=O)N[C@@H](CCCNC(=N)N)C(=O)N[C@@H](CCCNC(=N)N)C(=O)N[C@@H](CC(N)=O)C(=O)NC(C)(C)C(=O)N[C@@H](C)C(=O)NC(C)(C)C(N)=O` [CPP21] (HELM PEPTIDE1{[Aib].A.[Aib].Q.A.R.R.N.[Aib].G.[Aib].Q.A.R.R.N.[Aib].G.[Aib].Q.A.R.R.N.[Aib].G.[Aib].Q.A.R.R.N.[Aib].A.[Aib].[am]}$$$$V2.0; N-terminus assumed), the in-vivo targeting site result with BALB/c nude mice (FAM-labeled, IV 5 mg/kg, 200 μL, 4 hours) is “target the ear”. Besides, the “helicity ([θ]222/[θ]208)” value in data set [3] (CD spectra, listed as Example 22) amounted to 0.500.
